Holding throughout (type): cell-based
Test [1] deals with mTORC1 over mTORC2. As to the kind of experiment: mTORC1 over mTORC2 selectivity by comparing pS6K1 and pAKT IC50. As to conditions: by comparing pS6K1 and pAKT IC50, 90 min. The protocol:
Assay Protocol: • 1. Seed MCF-7 cells in Corning 3701 plate and incubate for 20˜24 hour. 12,000˜16,000 cells will be seeded in 36 μL medium per well. • 2. Change the culture medium with fresh medium and incubate for another 2 hours. • 3. Add 12 μL (4×) compounds into the cell plate by HAMILTON. Final DMSO concentration is 0.5%. Incubate for 90 minutes. • 4. Aspirate 38 μL by HAMILTON, 10 μL rest per well. • 5. Add 10 μL 2× lysis buffer using HAMILTON; total volume in wells is 20 μL. Allow cells to shake for 30 min. Cover plate by plastic foil and store plate at −80° C. up to analysis. • 6. Thaw cell lysate at RT and transfer 10 μL lysate to assay plate (Optiplate-384). • 7. Add 5 μL acceptor beads into assay plate and incubation for 2 hours • 8. Add 5 μL donor beads and incubation for 2 hours • 9. Count the plate by EnSpire Multimode Plate Reader […]
Compounds that are not selective by comparing pS6K1 and pAKT IC50 by kinase assays are indicated by “NO” in the “mTORC1 selective @ 90 min” column of Table 4. […] Compounds that are not selective at the 24 hrs mark are indicated by “NO” in the “mTORC1 selective @ 24 hrs” column of Table 4. “N/A” stands for “not assayed” and “N/C” stands for “not calculated”.

The subject of test [2] is p-Akt 1/2/3 (Ser473) in MCF-7 cells. The test is described as follows: AlphaLISA Ultra pAKT assay. The conditions noted are these: Homo sapiens, 1.5 h; MCF7 cells, 90 min. The procedure: Example 56: AlphaLISA Ultra pAKT Assay
Assay Protocol: • 1. MCF-7 cells in Corning 3701 plate and incubate for 20˜24 hour. 16,000˜20,000 cells will be seeded in 36 μL medium per well. • 2. Change the culture medium with fresh medium and incubate for another 90 minutes. • 3. Add 12 μL (4×) compounds into the cell plate by HAMILTON. Final DMSO concentration is 0.5%. […] Aspirate 38 μL by HAMILTON, 10 μL rest per well. • 5. Add 10 μL 2× lysis buffer using HAMILTON; total volume in wells is 20 μL. Allow cells to shake for 30 min. Cover plate by plastic foil and store plate at −80° C. up to analysis. • 6. Thaw cell lysate at RT and transfer 10 μL lysate to assay plate (Optiplate-384). • 7. Add 5 μL acceptor beads into assay plate and incubation for 2 hours • 8. Add 5 μL donor beads and incubation for 2 hours • 9. Count the plate by EnSpire Multimode Plate Reader

For test [3], the system named is p-p70 S6 Kinase (Thr389) in MCF-7 cells. The test is described as follows: AlphaLISA Ultra pS6K1 assay. The conditions noted are these: Homo sapiens, 1.5 h; MCF7 cells, 90 min. The procedure:
Example 55: AlphaLISA Ultra pS6K1 Assay
Assay Protocol: • 1. Seed MCF-7 cells in Corning 3701 plate and incubate for 20˜24 hour. 12,000˜16,000 cells will be seeded in 36 μL medium per well. • 2. Change the culture medium with fresh medium and incubate for another 2 hours. • 3. Add 12 μL (4×) compounds into the cell plate by HAMILTON. Final DMSO concentration is 0.5%. Incubate for 90 minutes. • 4. Aspirate 38 μL by HAMILTON, 10 μL rest per well. • 5. Add 10 μL 2× lysis buffer using HAMILTON; total volume in wells is 20 μL. Allow cells to shake for 30 min. Cover plate by plastic foil and store plate at −80° C. up to analysis. • 6. Thaw cell lysate at RT and transfer 10 μL lysate to assay plate (Optiplate-384). • 7. Add 5 μL acceptor beads into assay plate and incubation for 2 hours • 8. Add 5 μL donor beads and incubation for 2 hours • 9. Count the plate by EnSpire Multimode Plate Reader

Each structure is given as a SMILES string. pIC50: −log10 of the molar value. Bounds are passed on as bounds.

Turning to `CO[C@@H]1C[C@H](C[C@@H](C)[C@@H]2CC(=O)[C@H](C)/C=C(\C)[C@@H](O)[C@@H](OC)C(=O)[C@H](C)C[C@H](C)/C=C/C=C/C=C(\C)[C@@H](OCCOC3COC3)C[C@@H]3CC[C@@H](C)[C@@](O)(O3)C(=O)C(=O)N3CCCC[C@H]3C(=O)O2)CC[C@H]1OP(C)(C)=O` [I-78, (1R,9S,12S,15R,16E,18R,19R,21R,23S,24E,26E,28E,30S,32S,35R)-12-[(1R)-2-[(1S,3R,4R)-4-dimethylphosphoryloxy-3-methoxy-cyclohexyl]-1-methyl-ethyl]-1,18-dihydroxy-19-methoxy-15,17,21,23,29,35-hexamethyl-30-[2-(oxetan-3-yloxy)ethoxy]-11,36-dioxa-4-azatricyclo[30.3.1.0^4,9]hexatriaconta-16,24,26,28-tetraene-2,3,10,14,20-pentone], in test [1], the “mTORC1 selective @ 90 min” value is on record as “Yes”. Also, the pIC50 in test [2] is at most 6.00; in test [3] it was over 9.00.

For the molecule `CO[C@@H]1/C(C)=C/[C@@H](C)C(=O)C[C@@H]([C@H](C)C[C@@H]2CC[C@@H](OP(C)(C)=O)[C@H](OC)C2)OC(=O)[C@@H]2CCCCN2C(=O)C(=O)[C@]2(O)O[C@@H](CC[C@H]2C)CC(OCCOC2COC2)/C(C)=C/C=C/C=C/[C@@H](C)C[C@@H](C)C(=O)[C@@H]1OC` (stereo partly drawn) [I-75, (1R,2R,4S)-4-((2R)-2-((3S,6R,7E,9R,10R,12R,14S,15E,17E,19E,23S,26R,27R,34aS)-27-hydroxy-9,10-dimethoxy-6,8,12,14,20,26-hexamethyl-21-(2-(oxetan-3-yloxy)ethoxy)-1,5,11,28,29-pentaoxo-1,4,5,6,9,10,11,12,13,14,21,22,23,24,25,26,27,28,29,31,32,33,34,34a-tetracosahydro-3H-23,27-epoxypyrido[2,1-c][1]oxa[4]azacyclohentriacontin-3-yl)propyl)-2-methoxycyclohexyl dimethylphosphinate], the “mTORC1 selective @ 90 min” value in test [1] is “Yes”. Moreover, the pIC50 in test [2] and in test [3] was at most 6.00 in each case.

For the molecule `CO[C@@H]1C[C@H](C[C@@H](C)[C@@H]2CC(=O)[C@H](C)/C=C(\C)[C@@H](O)[C@@H](OC)C(=O)[C@H](C)C[C@H](C)/C=C/C=C/C=C(\C)[C@H](OCCOC3COC3)C[C@@H]3CC[C@@H](C)[C@@](O)(O3)C(=O)C(=O)N3CCCC[C@H]3C(=O)O2)CC[C@H]1OC(=O)N(C)CCN1CCOCC1` [I-17, [(43S,45R,47R)-4-[(2R)-2-[(28E,30E,32E,33E,39R,40S,41R,42R,44S,46S,48R,49S,51R,52R,62R)-51,62-dihydroxy-52-methoxy-39,40,41,42,53,54-hexamethyl-48-[2-(oxetan-3-yloxy)ethoxy]-55,56,57,58,59-pentaoxo-76,77-dioxa-64-azatricyclohexatriaconta-28,30,32(53),33(54)-tetraen-49-yl]propyl]-47-methoxy-45-cyclohexyl] N-methyl-N-(2-morpholinoethyl)carbamate], in test [1], the “mTORC1 selective @ 90 min” value is recorded as “Yes”. Moreover, the pIC50 was at most 6.00 in test [2] and 8.00 to 9.00 in test [3].

With `CO[C@@H]1/C(C)=C/[C@@H](C)C(=O)C[C@@H]([C@H](C)C[C@@H]2CC[C@@H](OCCO)[C@H](OC)C2)OC(=O)[C@@H]2CCCCN2C(=O)C(=O)[C@]2(O)O[C@@H](CC[C@H]2C)CC(OCCOCCN)/C(C)=C/C=C/C=C/[C@@H](C)C[C@@H](C)C(=O)[C@@H]1OC` (stereo partly drawn) [I-23, (22E,24E,26E,27E,35R,36S,37R,38R,40S,42S,45S,46R,47R,56R)-44-[2-(2-aminoethoxy)ethoxy]-56-hydroxy-45-[(1R)-2-[(1S,3R,4R)-4-(2-hydroxyethoxy)-3-methoxy-cyclohexyl]-1-methyl-ethyl]-46,47-dimethoxy-35,36,37,38,48,49-hexamethyl-66,67-dioxa-58-azatricyclohexatriaconta-22,24,26(48),27(49)-tetraene-50,51,52,53,54-pentone], the “mTORC1 selective @ 90 min” value in test [1] is “Yes”. The pIC50 in test [2] is at most 6.00; in test [3], 6.00 to 7.00.

Take `CO[C@@H]1C[C@H](C[C@@H](C)[C@@H]2CC(=O)[C@H](C)/C=C(\C)[C@@H](O)[C@@H](OC)C(=O)[C@H](C)C[C@H](C)/C=C/C=C/C=C(\C)[C@@H](OCC3COCCO3)C[C@@H]3CC[C@@H](C)[C@@](O)(O3)C(=O)C(=O)N3CCCC[C@H]3C(=O)O2)CC[C@H]1OC(=O)NCCN1CCOCC1` (stereo partly drawn) [I-103, [(42S,44R,46R)-4-[(2R)-2-[(28E,30E,32E,33E,38R,39S,40R,41R,43S,45S,47S,48S,50R,51R,61R)-47-(1,4-dioxan-2-ylmethoxy)-50,61-dihydroxy-51-methoxy-38,39,40,41,52,53-hexamethyl-54,55,56,57,58-pentaoxo-76,77-dioxa-64-azatricyclohexatriaconta-28,30,32(52),33(53)-tetraen-48-yl]propyl]-46-methoxy-44-cyclohexyl] N-(2-morpholinoethyl)carbamate]: the “mTORC1 selective @ 90 min” value in test [1] was “Yes”. Further, the values for the pIC50 in test [2] and in test [3] were at most 6.00 and 8.00 to 9.00, respectively.

For the molecule `CO[C@@H]1C[C@H](C[C@@H](C)[C@@H]2CC(=O)[C@H](C)/C=C(\C)[C@@H](O)[C@@H](OC)C(=O)[C@H](C)C[C@H](C)/C=C/C=C/C=C(\C)C(OCCOC3COC3)C[C@@H]3CC[C@@H](C)[C@@](O)(O3)C(=O)C(=O)N3CCCC[C@H]3C(=O)O2)CC[C@H]1OP(C)(C)=O` (stereo partly drawn) [I-89, (1R,9S,12S,15R,16E,18R,19R,21R,23S,24E,26E,28E,32S,35R)-12-[(1R)-2-[(1S,3R,4R)-4-dimethylphosphoryloxy-3-methoxy-cyclohexyl]-1-methyl-ethyl]-1,18-dihydroxy-19-methoxy-15,17,21,23,29,35-hexamethyl-30-[2-(oxetan-3-yloxy)ethoxy]-11,36-dioxa-4-azatricyclo[30.3.1.04,9]hexatriaconta-16,24,26,28-tetraene-2,3,10,14,20-pentone], in test [1], the “mTORC1 selective @ 90 min” value was “Yes”. For the same molecule, the pIC50 is at most 6.00 in test [2] and 8.00 to 9.00 in test [3].

Turning to `COCCOCCO[C@@H]1C[C@@H]2CC[C@@H](C)[C@@](O)(O2)C(=O)C(=O)N2CCCC[C@H]2C(=O)O[C@H]([C@H](C)C[C@@H]2CC[C@@H](O)[C@H](OC)C2)CC(=O)[C@H](C)/C=C(\C)[C@@H](OC)[C@@H](OC)C(=O)[C@H](C)C[C@H](C)/C=C/C=C/C=C/1C` [I-48, (23E,25E,27E,28E,34R,35S,36R,37R,39S,41S,43R,44S,45R,46R,55R)-55-hydroxy-44-[(1R)-2-[(1S,3R,4R)-4-hydroxy-3-methoxy-cyclohexyl]-1-methyl-ethyl]-45,46-dimethoxy-43-[2-(2-methoxyethoxy)ethoxy]-34,35,36,37,47,48-hexamethyl-64,65-dioxa-56-azatricyclohexatriaconta-23,25,27(47),28(48)-tetraene-49,50,51,52,53-pentone], in test [1], the “mTORC1 selective @ 90 min” value is “Yes”. The pIC50 was at most 6.00 in test [2] and 8.00 to 9.00 in test [3].

As for `CO[C@@H]1/C(C)=C/[C@@H](C)C(=O)C[C@@H]([C@H](C)C[C@@H]2CC[C@@H](OC)[C@H](OC)C2)OC(=O)[C@@H]2CCCCN2C(=O)C(=O)[C@]2(O)O[C@@H](CC[C@H]2C)CC(OCCOCCN(C)C)/C(C)=C/C=C/C=C/[C@@H](C)C[C@@H](C)C(=O)[C@@H]1OC` (stereo partly drawn) [I-95, (25E,27E,29E,30E,36R,37S,38R,39R,41S,43S,46S,47R,48R,57R)-46-[(1R)-2-[(1S,3R,4R)-3,4-dimethoxycyclohexyl]-1-methyl-ethyl]-45-[2-[2-(dimethylamino)ethoxy]ethoxy]-57-hydroxy-47,48-dimethoxy-36,37,38,39,49,50-hexamethyl-66,67-dioxa-58-azatricyclohexatriaconta-25,27,29(49),30(50)-tetraene-51,52,53,54,55-pentone], the “mTORC1 selective @ 90 min” value in test [1] is “Yes”. The pIC50 in test [2] was at most 6.00; in test [3] it was 6.00 to 7.00.

Values taken from patent publication US20220267352A1, “RAPAMYCIN ANALOGS AND USES THEREOF” (Anakuria Therapeutics, Inc., priority 2021, published 2022).
